Experimental findings from PubChem BioAssay (NCI) are described below.

Test systems include A549 NSCLC; HL-60(TB) leukemia; HT29 colon; NCI-H23 lung; SN12C renal; SNB-75 CNS; U251 CNS; IGROV1 ovarian; OVCAR-4 ovarian.
Common to all, as to experiment: NCI tumour cell line growth inhibition, 48 h

Each structure is given as a SMILES string.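 Values below derive from 48-hour exposures of cells grown in 96-well plates, with endpoints linearly interpolated between the two concentrations bracketing the appropriate inhibition level. TGI is the concentration that stops growth completely.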 Bounds are passed on as bounds.

For `COc1cc(Nc2cnc3cc(C(F)(F)F)ccc3n2)cc(OC)c1OC`, the TGI in the experiment with A549 NSCLC, with HL-60(TB) leukemia, in the experiment with HT29 colon, in the experiment with NCI-H23 lung, in the experiment on SN12C renal and in the experiment with SNB-75 CNS was more than 100 µM in each case. This compound came in with a TGI with U251 CNS of more than 100 µM.

For `CCCc1c2c([nH]c(=O)c1C)C(=O)c1[nH]c(=O)c(C)c(CCC)c1C2=O`, the TGI in the experiment with A549 NSCLC was 72.7 µM; with HL-60(TB) leukemia it was 24.8 µM; in the experiment on HT29 colon it was 18.7 µM; with IGROV1 ovarian, 88.4 µM; in the experiment with NCI-H23 lung it was 57.4 µM; in the experiment on OVCAR-4 ovarian, 54.6 µM. The TGI in the experiment with SN12C renal turned out to be 22.2 µM; with SNB-75 CNS it was 55.9 µM.

As for `CCCCCCCCCCCCCS(=O)(=O)O`, the TGI with A549 NSCLC, in the experiment with HL-60(TB) leukemia, with HT29 colon, with IGROV1 ovarian, in the experiment with NCI-H23 lung and with OVCAR-4 ovarian was more than 100 µM throughout. Moreover, the TGI with SN12C renal, in the experiment with SNB-75 CNS and in the experiment with U251 CNS was more than 100 µM each time.

With `O=C(O)c1ccc(NC(=O)C2C(=O)C(=O)N(c3ccc(C(=O)O)cc3)C2=O)cc1` (stereo not drawn), the TGI in the experiment on A549 NSCLC, with HL-60(TB) leukemia, in the experiment with HT29 colon, in the experiment with IGROV1 ovarian, in the experiment with NCI-H23 lung and with OVCAR-4 ovarian was more than 100 µM each time. Also, the TGI with SN12C renal, with SNB-75 CNS and in the experiment with U251 CNS was more than 100 µM each time.

With `CCN(CC)CCCN(c1cc(OC)cc2nccnc12)S(=O)(=O)c1ccc(C)cc1`, the TGI with A549 NSCLC, with HL-60(TB) leukemia, in the experiment on HT29 colon, with IGROV1 ovarian, in the experiment with NCI-H23 lung and with OVCAR-4 ovarian was more than 100 µM throughout. Besides, the TGI in the experiment with SN12C renal, in the experiment on SNB-75 CNS and in the experiment with U251 CNS was more than 100 µM throughout.

Regarding `O=C1C2C(C(=O)N1O)N(Cc1ccccc1)C(=O)N2Cc1ccccc1` (stereo not drawn), the TGI in the experiment on A549 NSCLC, in the experiment with HL-60(TB) leukemia, with HT29 colon, in the experiment on IGROV1 ovarian, with NCI-H23 lung and in the experiment on OVCAR-4 ovarian was more than 100 µM each time. Moreover, the TGI with SN12C renal, in the experiment on SNB-75 CNS and with U251 CNS was more than 100 µM each time.

For the compound `CC[C@@H]1C[C@@H]2CN3CCc4c([nH]c5ccc(OC)cc45)C(COC(=O)c4ccc(OC)c(OC)c4)(C2)C13`, the TGI is more than 100 µM with A549 NSCLC; 39.2 µM in the experiment with HL-60(TB) leukemia; 39.2 µM in the experiment with HT29 colon; 74.5 µM with IGROV1 ovarian; 38.8 µM in the experiment on NCI-H23 lung; more than 100 µM with OVCAR-4 ovarian. For the same compound, the TGI in the experiment with SN12C renal was 39.3 µM; in the experiment on SNB-75 CNS, more than 100 µM; in the experiment with U251 CNS it was 43.6 µM.

In the case of `C/C(=N\NC(=S)N1CCCCCC1)c1nccnc1C`, the TGI in the experiment with A549 NSCLC was 30.6 µM; in the experiment on HL-60(TB) leukemia, 2.95 µM; in the experiment on HT29 colon it was more than 100 µM; with OVCAR-4 ovarian, more than 100 µM; in the experiment on SN12C renal it was more than 100 µM; in the experiment with SNB-75 CNS, 21.9 µM. This compound also had a TGI in the experiment on U251 CNS of more than 100 µM.

With `COc1nc2c(OC)cccc2c(OC)c1C=O`, the TGI with A549 NSCLC, in the experiment on HL-60(TB) leukemia, in the experiment with HT29 colon, with IGROV1 ovarian, with NCI-H23 lung and in the experiment with SN12C renal was more than 100 µM each time. Moreover, the TGI with SNB-75 CNS and in the experiment on U251 CNS was more than 100 µM throughout.

As for `O=C(Nc1ccc(Cl)c(C(F)(F)F)c1)C(=O)C(C(=O)/C=C/c1ccccc1)C1OC(=O)c2ccccc21` (stereo not drawn), the TGI in the experiment on A549 NSCLC, with HL-60(TB) leukemia, in the experiment on HT29 colon, in the experiment with IGROV1 ovarian, in the experiment on NCI-H23 lung and in the experiment on OVCAR-4 ovarian was more than 100 µM in each case. For the same compound, the TGI with SN12C renal, in the experiment on SNB-75 CNS and in the experiment with U251 CNS was more than 100 µM in each case.

As to `CC(C)C(C(=O)O)N(CC1(O)OCC(O)C(O)C1O)N=O` (stereo not drawn), the TGI in the experiment on A549 NSCLC, with HL-60(TB) leukemia, in the experiment with HT29 colon, in the experiment with IGROV1 ovarian, in the experiment on NCI-H23 lung and with SNB-75 CNS was more than 100 µM throughout. This compound registered a TGI in the experiment with U251 CNS of more than 100 µM.

On to `COc1cccc(N2C(=O)c3c(c4[nH]c5ccccc5c4c4ccc(C(C)(C)C)cc34)C2=O)c1`, for which the TGI with A549 NSCLC, in the experiment with IGROV1 ovarian, in the experiment with NCI-H23 lung, with OVCAR-4 ovarian, with SN12C renal and with SNB-75 CNS was more than 100 µM each time. The TGI with U251 CNS is more than 100 µM.

Take `CN/N=C(/Cc1occc(=O)c1O)C(=O)Nc1ccc(C)c(C)c1`: the TGI with A549 NSCLC, in the experiment on HL-60(TB) leukemia, in the experiment on HT29 colon, in the experiment on IGROV1 ovarian, with NCI-H23 lung and with OVCAR-4 ovarian was more than 100 µM throughout. Moreover, the TGI with SN12C renal and in the experiment on U251 CNS was more than 100 µM throughout.

On to `Cc1ccc(S(=O)(=O)N/N=C(\CCN2CCCC2)CC(c2ccccc2)c2c(O)c3ccccc3oc2=O)cc1` (stereo not drawn), for which the TGI in the experiment on A549 NSCLC, in the experiment with HL-60(TB) leukemia, in the experiment with HT29 colon, with IGROV1 ovarian, in the experiment on NCI-H23 lung and in the experiment on OVCAR-4 ovarian was more than 100 µM each time. Besides, the TGI with SN12C renal, in the experiment with SNB-75 CNS and in the experiment on U251 CNS was more than 100 µM in each case.

With `C/C(=N\N=C(N)N)C(CN(CC(C)C)CC(C)C)C(=O)Nc1ccc(C)cc1C` (stereo not drawn), the TGI in the experiment with A549 NSCLC, in the experiment on HL-60(TB) leukemia, in the experiment on HT29 colon, in the experiment with IGROV1 ovarian, in the experiment with NCI-H23 lung and in the experiment with OVCAR-4 ovarian was more than 100 µM in each case. Further, the TGI with SN12C renal, in the experiment on SNB-75 CNS and in the experiment with U251 CNS was more than 100 µM in each case.

Regarding `CC(C)(C)NNC(=O)/C(=C/c1ccc(Oc2ccc(Cl)c(Cl)c2)cc1)NC(=O)c1ccccc1`, the TGI in the experiment on A549 NSCLC, with HL-60(TB) leukemia, with HT29 colon, in the experiment on IGROV1 ovarian, with NCI-H23 lung and in the experiment on OVCAR-4 ovarian was more than 100 µM throughout. The TGI in the experiment with SN12C renal, in the experiment with SNB-75 CNS and with U251 CNS was more than 100 µM in each case.
